The values that follow come from ChEMBL document CHEMBL1687772, “Lysyl-phosphatidylglycerol attenuates membrane perturbation rather than surface association of the cationic antimicrobial peptide 6W-RP-1 in a model membrane system: implications for daptomycin resistance” (Antimicrob Agents Chemother, 2010).

Test [1] relates to Lipid bilayer. Briefly: Binding affinity to POPG:POPC:lysyl-DOPG:7MC-POPE unilamellar lipid vesicle with >30 mol% of lysyl-DOPG at 0.5 uM by FRET assay.
The subject of test [2] is Lipid bilayer. Briefly: Binding affinity to POPG:POPC:lysyl-DOPG:7MC-POPE unilamellar lipid vesicle with <30 mol% of lysyl-DOPG at 0.5 uM by FRET assay.

The source made the active and inactive calls. The calls are words filed in the database; no cut-off is given here.

Turning to H-ALYKKWKKKLLKSLKRLG-OH, the outcome in the test on Lipid bilayer [1] was inactive. Besides, in the test with Lipid bilayer [2], the outcome was Active.
